Measured values taken from patent US20240308976A1, “COMPOUNDS THAT MEDIATE PROTEIN DEGRADATION AND USES THEREOF” (Monte Rosa Therapeutics, Inc., priority 2021, published 2024).

What was measured:
[1] = target: T1, GSPT1 (Homo sapiens, UniProt P15170+Q96SW2); assay: Immunofluorescence assay for activity to degrade GSPT1 in CAL-51 cells; assay type: cell-based; conditions: 6 h treatment, read-out: IF Class (GSPT1 degradation, DC50)
T1 construct: CAL-51 cells were purchased from DSMZ (cat. Number ACC302); host or cells: CAL-51
T1 sequence (P15170 whole entry): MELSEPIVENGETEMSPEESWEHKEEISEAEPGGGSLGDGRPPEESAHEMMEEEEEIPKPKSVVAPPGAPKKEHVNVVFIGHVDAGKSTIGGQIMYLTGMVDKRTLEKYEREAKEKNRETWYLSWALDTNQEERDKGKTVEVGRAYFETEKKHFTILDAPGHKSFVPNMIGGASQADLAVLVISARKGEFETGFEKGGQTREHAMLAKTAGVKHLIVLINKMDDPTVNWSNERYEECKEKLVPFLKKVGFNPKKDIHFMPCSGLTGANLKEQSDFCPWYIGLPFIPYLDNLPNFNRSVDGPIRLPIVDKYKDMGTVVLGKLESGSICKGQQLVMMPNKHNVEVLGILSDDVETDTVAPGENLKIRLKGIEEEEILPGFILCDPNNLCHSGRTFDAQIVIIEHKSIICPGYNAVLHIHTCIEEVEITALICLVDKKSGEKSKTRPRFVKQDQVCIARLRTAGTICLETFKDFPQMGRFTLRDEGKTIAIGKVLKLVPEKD
T1 sequence (Q96SW2 whole entry): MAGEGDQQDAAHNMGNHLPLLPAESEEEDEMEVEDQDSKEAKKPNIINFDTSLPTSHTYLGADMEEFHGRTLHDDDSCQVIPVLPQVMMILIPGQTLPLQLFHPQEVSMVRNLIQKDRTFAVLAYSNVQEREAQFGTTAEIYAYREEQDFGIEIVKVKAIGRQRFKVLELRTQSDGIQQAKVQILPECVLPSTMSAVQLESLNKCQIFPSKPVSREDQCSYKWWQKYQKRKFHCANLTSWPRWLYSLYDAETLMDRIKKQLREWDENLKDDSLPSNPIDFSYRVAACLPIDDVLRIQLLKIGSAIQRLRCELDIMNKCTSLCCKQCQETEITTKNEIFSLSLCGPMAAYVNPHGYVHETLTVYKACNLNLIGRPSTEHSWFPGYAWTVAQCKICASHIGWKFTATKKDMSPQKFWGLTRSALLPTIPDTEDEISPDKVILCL
T1 sequence (Q16531 2-1140 partner limits assumed): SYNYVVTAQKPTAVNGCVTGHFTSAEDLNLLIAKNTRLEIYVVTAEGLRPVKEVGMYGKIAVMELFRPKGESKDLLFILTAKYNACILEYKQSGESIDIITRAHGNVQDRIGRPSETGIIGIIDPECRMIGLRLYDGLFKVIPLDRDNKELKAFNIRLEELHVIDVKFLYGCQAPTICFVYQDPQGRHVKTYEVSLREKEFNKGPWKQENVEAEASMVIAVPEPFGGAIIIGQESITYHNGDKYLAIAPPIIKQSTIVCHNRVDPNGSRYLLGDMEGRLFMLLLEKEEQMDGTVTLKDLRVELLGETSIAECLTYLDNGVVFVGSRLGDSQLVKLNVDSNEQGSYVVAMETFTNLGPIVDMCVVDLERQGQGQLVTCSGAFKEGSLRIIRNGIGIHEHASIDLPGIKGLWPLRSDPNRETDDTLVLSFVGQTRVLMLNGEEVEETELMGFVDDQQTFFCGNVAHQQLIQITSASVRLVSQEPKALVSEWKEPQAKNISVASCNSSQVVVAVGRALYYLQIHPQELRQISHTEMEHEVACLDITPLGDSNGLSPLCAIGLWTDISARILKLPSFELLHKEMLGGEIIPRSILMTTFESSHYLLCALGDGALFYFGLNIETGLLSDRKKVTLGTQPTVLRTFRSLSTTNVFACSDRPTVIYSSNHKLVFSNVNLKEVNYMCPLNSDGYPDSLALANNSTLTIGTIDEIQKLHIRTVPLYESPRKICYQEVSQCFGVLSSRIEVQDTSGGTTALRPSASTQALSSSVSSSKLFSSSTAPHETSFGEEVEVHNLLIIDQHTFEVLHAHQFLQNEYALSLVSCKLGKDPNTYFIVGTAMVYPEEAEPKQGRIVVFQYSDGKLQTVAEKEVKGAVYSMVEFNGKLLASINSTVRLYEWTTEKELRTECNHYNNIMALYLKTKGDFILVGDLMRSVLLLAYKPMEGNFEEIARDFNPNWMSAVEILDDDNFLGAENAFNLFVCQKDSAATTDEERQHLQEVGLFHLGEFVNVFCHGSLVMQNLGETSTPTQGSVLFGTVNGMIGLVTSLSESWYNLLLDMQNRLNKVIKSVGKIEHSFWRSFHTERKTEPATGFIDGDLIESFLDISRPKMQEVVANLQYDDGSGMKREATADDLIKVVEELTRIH
Protocol: Example 147: Compound Activity by Immunofluorescence Assay
The representative compounds were tested in an immunofluorescence assay for their activity to degrade GSPT1. CAL-51 cells were purchased from DSMZ (cat. Number ACC302), sub-cultured in 90% Dulbecco's MEM (4.5 g/L glucose, Gibco 11965)+10% heat inactivated FBS (BioConcept, 2-01F136I) and incubated at 37° C., 5% CO2. For the assay imaging microtiter plate Cell Carrier 96 Ultra (Perkin Elmer 6055302) were pre-coated with Fibronectin (Sigma F085, 30 μL at 0.2 μg/mL) in PBS (100 μL, Gibco 14190) for 45 min at room temperature, rinsed with PBS and CAL-51 cells (30K cells/well) were plated and let to adhere overnight. Cells were treated with compounds typically using a serial dilution ranging from 30 μM to 0.1 nM for 6 h. Compounds were stored at 10 mM DMSO stocks. Vehicle (DMSO), positive (CC-885, 10 μM) and rescue controls (positive control plus 0.2 μM bortezomib) were also included at this stage. Cells were subsequently rinsed with PBS and fixed in 10% Formalin solution (50 μL, Sigma HT5011)) for 20 mins at room temperature. Following three consecutive PBS washes (100 μL), cells were permeabilized in 0.1% Triton X-100 in PBS (Sigma 93443, 50 μL) for 15 min. at room temperature. Following three further PBS washes, 50 μL blocking buffer (1% BSA, Sigma A4503, in PBS) was added for 45 min for signal-to noise reduction. Primary antibody (human GSPT1, Sigma HPA052488) was diluted in blocking buffer (dil.1/300, 35 μL/well) and incubated with the cells overnight at 4° C. After three PBS washes, Alexa-fluor 488 coupled secondary antibodies (Invitrogen, A32731, dil. 1/1000), Alexa-fluor 647-Phalloidin (Invitrogen, A22287, dil. 1/200) and DAPI (Thermo, #62248, dil. 1/1000) were diluted in blocking buffer and incubated with the samples for 2 h at room temperature. After three final PBS washes, samples were conserved in 100 μL PBS in the dark, until measurement. Image acquisition was performed on the Operetta High-Content Imager (Perkin-Elmer). Fluorescence intensity of […] (GSPT1), Alexa-Fluor 647 (Actin) and DAPI (Nucleus) were measured. For the determination of GSPT1 DC50 values, a custom algorithm implemented in the PerkinElmer image analysis software Harmony-Acapella® was developed. After user-defined setting of adjustment parameters, the analysis was run identically without human intervention for all image fields. DAPI staining of the nuclei was used to determine the location of cells using standard nuclei detection modules. Segmentation artifacts were removed by threshold-based filters for area, roundness and intensity. The outline of the cells was determined analogously from the sum of the normalized, smoothed DAPI and Actin channel, starting from each nucleus. The Alexa-Fluor 488 (GSPT1) signal intensity in each cell was finally measured, in order to obtain a Mean intensity per cell. GSPT1 degradation (DC50) was calculated after normalization to controls and data import in CDD vault Database, using non-linear regression.
(§1) In Table 2, each compound is assigned a class (HTRF class) indicating the ability for Cereblon binding by means of their HTRF IC50 values according to […]: A, B, C or D. According to the code, A represents an IC50 value of ≤100 nM, B represents an IC50 value>100 nM and ≤1000 nM, C represents an IC50 value>1000 nM. IF Class assigns each compound a code indicating the ability for GSPT1 degradation: A, B or C. According to the code, A represents a DC50 value of ≤30 nM, B represents a DC50 value>30 nM and ≤300 nM and C represents a DC50 value of >300 nM.

[2] = target: CRBN-DDB1 (Homo sapiens, UniProt Q96SW2); assay: Compound binding to CRBN by HTRF assay; conditions: CRBN-DDB1 2.5 nM, Cy5-Thalidomide 100 nM, 30 min at ambient temperature; read-out: HTRF Class (Cereblon binding, HTRF IC50)
Chain of CRBN-DDB1 (Q96SW2 whole entry): as the sequence (Q96SW2 whole entry) above
Chain of CRBN-DDB1 (Q16531 whole entry partner): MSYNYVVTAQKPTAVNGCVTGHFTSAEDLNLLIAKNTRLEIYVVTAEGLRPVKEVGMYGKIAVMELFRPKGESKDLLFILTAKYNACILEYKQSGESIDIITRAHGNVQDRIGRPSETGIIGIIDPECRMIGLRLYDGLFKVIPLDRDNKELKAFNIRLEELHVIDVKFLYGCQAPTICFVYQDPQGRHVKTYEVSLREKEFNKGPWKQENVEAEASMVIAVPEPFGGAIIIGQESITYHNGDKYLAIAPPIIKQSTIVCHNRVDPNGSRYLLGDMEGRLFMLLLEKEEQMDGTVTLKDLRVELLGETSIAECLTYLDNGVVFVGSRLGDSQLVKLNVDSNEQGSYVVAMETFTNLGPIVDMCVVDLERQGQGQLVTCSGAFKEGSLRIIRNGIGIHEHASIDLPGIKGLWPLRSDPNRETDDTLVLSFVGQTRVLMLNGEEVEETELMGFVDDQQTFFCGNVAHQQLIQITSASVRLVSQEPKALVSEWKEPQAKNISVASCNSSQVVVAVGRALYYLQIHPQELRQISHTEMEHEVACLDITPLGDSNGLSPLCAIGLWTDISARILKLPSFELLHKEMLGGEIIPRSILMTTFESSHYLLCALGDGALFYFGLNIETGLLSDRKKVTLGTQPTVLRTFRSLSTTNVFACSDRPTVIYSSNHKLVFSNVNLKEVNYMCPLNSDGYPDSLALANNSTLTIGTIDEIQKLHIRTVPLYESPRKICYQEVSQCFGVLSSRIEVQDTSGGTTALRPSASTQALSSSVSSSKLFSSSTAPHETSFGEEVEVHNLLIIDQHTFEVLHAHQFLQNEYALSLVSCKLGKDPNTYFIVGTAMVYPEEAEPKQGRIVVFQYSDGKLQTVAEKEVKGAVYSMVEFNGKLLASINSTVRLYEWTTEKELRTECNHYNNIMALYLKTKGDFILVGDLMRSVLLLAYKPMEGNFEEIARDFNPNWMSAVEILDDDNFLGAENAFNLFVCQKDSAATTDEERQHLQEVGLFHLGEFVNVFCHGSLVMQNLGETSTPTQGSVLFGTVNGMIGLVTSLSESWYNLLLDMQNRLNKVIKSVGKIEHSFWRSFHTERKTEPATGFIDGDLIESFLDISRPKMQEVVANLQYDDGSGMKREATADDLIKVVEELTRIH
Protocol: Example 146: Compound Binding to CRBN by HTRF Assay
Compound activity was monitored in a Homogenous Time-Resolved Fluorescence (HTRF) assay using 1-[5-({2-[2-(2-{[2-(2,6-dioxopiperidin-3-yl)-1,3-dioxo-2,3-dihydro-1H-isoindol-4-yl]oxy}acetamido)ethoxy]ethyl}carbamoyl)pentyl]-3,3-dimethyl-2-[(1E,3E)-5-[(2E)-1,3,3-trimethyl-5-sulfo-2,3-dihydro-1H-indol-2-ylidene]penta-1,3-dien-1-yl]-3H-indol-1-ium-5-sulfonate as a fluorescent probe. Biochemical assays were conducted in Greiner white 384 well HiBase plates (Cat. No 784075-25) in 10 μL total volume. A one pot detection solution of CRBN-DDB1 (2.5 nM), Anti-His Terbium Cryptate Gold (1X, PerkinElmer Cat. #: 61HI2TLB), and Cy5-Thalidomide (100 nM, Tenova Cat.: T52461) was prepared in 20 mM HEPES, 20 mM NaCl, 0.2 mM TCEP, 0.2 mM EDTA, and 0.005% Tween20 was dispensed to each assay plate. Compounds were stored in dry, ambient temperatures at 10 mM. A 10-point, 1:3 dilution series was prepared from 10 mM stock concentrations in Echo-compatible LDV plates. 10 nL of each compound dilution series was dispensed into assays wells using an Echo 650 (Labcyte inc. USA). 10 nL of 10 mM Lenalidomide was transferred into the active-control wells for the assay and 10 nL of DMSO was transferred into the neutral-control wells. The assay was then allowed to incubate for 30 min at ambient temperature after transferring compound. Plate measurements were taken on a Pherastar FSX (BMG Labtech, Germany) using the HTRF Red filter (Ex. 337 nm, em1: 620 nm, em2: 665 nm) (Flashes: 50, Integration time: 60-400 us, Z-height: 10 mm, Ratio-multiplier: 10,000). The HTRF signal was then subsequently normalized to the neutral and active controls. Analysis and IC50 values were derived using KNIME analytics (KNIME Zurich) transformation and fitting within Collaborative Drug Discovery (Collaborative Drug Discovery USA). Ki was derived from the geometric mean of the IC50 values using the Cheng-Prustoff transformation.
as §1

Row | SMILES | DC50 [1] [nM] | IC50 [2] [nM]
1 | Cc1ccccc1-c1ccc(NC(=O)NC2CN(c3cc(F)c(C4CCC(=O)NC4=O)c(F)c3)C2)cn1 (stereo not drawn) [Compound 23, 1-(1-(4-(2,6-dioxopiperidin-3-yl)-3,5-difluorophenyl)azetidin-3-yl)-3-(6-(o-tolyl)pyridin-3-yl)urea] | ≤ 30 | ≤ 100
2 | Cc1c(Cl)cc(NC(=O)NC2CN(c3cc(F)c(C4CCC(=O)NC4=O)c(F)c3)C2)cc1CN1CCOCC1 (stereo not drawn) [Compound 24, 1-(3-chloro-4-methyl-5-(morpholinomethyl)phenyl)-3-(1-(4-(2,6-dioxopiperidin-3-yl)-3,5-difluorophenyl)azetidin-3-yl) urea] | ≤ 30 | ≤ 100
3 | O=C1CCC(c2c(F)cc(N3CC(NC(=O)Nc4cc(-c5ccccc5)ccn4)C3)cc2F)C(=O)N1 (stereo not drawn) [Compound 25, 1-(1-(4-(2,6-dioxopiperidin-3-yl)-3,5-difluorophenyl)azetidin-3-yl)-3-(4-phenylpyridin-2-yl) urea] | > 300 | ≤ 100
4 | Cc1ccc(NC(=O)OC2CN(c3cc(Cl)c(C4CCC(=O)NC4=O)cc3F)C2)cc1Cl (stereo not drawn) [Compound 29] | 30 to 300 | > 1000
5 | Cc1cc(C)cc(NC(=O)OC2CN(c3ccc(C4CCC(=O)NC4=O)c(Cl)c3)C2)c1 (stereo not drawn) [Compound 31, 1-(3-chloro-4-(2,6-dioxopiperidin-3-yl)phenyl)azetidin-3-yl (3,5-dimethylphenyl)carbamate] | > 300 | 100 to 1000
6 | O=C1CCC(c2ccc(N3CC(OC(=O)Nc4cccc(OC(F)(F)F)c4)C3)cc2Cl)C(=O)N1 (stereo not drawn) [Compound 36, 1-(3-chloro-4-(2,6-dioxopiperidin-3-yl)phenyl)azetidin-3-yl (3-(trifluoromethoxy)phenyl)carbamate] | 30 to 300 | > 1000
7 | O=C1CCC(c2c(F)cc(N3CC(OC(=O)Nc4cc(Cl)cc(OC(F)F)c4)C3)cc2F)C(=O)N1 (stereo not drawn) [Compound 38, 1-(4-(2,6-dioxopiperidin-3-yl)-3,5-difluorophenyl)azetidin-3-yl(3-chloro-5-(difluoromethoxy)phenyl) carbamate] | 30 to 300 | 100 to 1000
8 | Cc1cc(NC(=O)OC2CN(c3cc(F)c(C4CCC(=O)NC4=O)c(F)c3)C2)c(F)cc1Cl (stereo not drawn) [Compound 39, 1-(4-(2,6-dioxopiperidin-3-yl)-3,5-difluorophenyl)azetidin-3-yl(4-chloro-2-fluoro-5-methylphenyl)carbamate] | ≤ 30 | 100 to 1000

Now from value to molecule:

Row | DC50 [1] [nM] | IC50 [2] [nM] | SMILES
9 | ≤ 30 | ≤ 100 | O=C1CCC(c2c(F)cc(N3CC(NC(=O)Nc4ccc(-c5ccccn5)cc4)C3)cc2F)C(=O)N1 (stereo not drawn) [Compound 26, 1-(1-(4-(2,6-dioxopiperidin-3-yl)-3,5-difluorophenyl)azetidin-3-yl)-3-(4-(pyridin-2-yl)phenyl)urea]
10 | 30 to 300 | ≤ 100 | O=C1CCC(c2c(F)cc(N3CC(NC(=O)Nc4cc(OC(F)(F)F)ccn4)C3)cc2F)C(=O)N1 (stereo not drawn) [Compound 27, 1-(1-(4-(2,6-dioxopiperidin-3-yl)-3,5-difluorophenyl)azetidin-3-yl)-3-(4-(trifluoromethoxy)pyridin-2-yl)urea]
11 | 30 to 300 | 100 to 1000 | O=C1CCC(c2c(F)cc(N3CC(NC(=O)Nc4cc(Cl)cc(OC(F)F)c4)C3)cc2F)C(=O)N1 (stereo not drawn) [Compound 28, 1-(3-chloro-5-(difluoromethoxy)phenyl)-3-(1-(4-(2,6-dioxopiperidin-3-yl)-3,5-difluorophenyl)azetidin-3-yl)urea]
12 | ≤ 30 | ≤ 100 | C[C@@H]1CCCN1c1ccc(NC(=O)NC2CN(c3cc(F)c(C4CCC(=O)NC4=O)c(F)c3)C2)cn1 (stereo partly drawn) [Compound 30, 1-(1-(4-(2,6-dioxopiperidin-3-yl)-3,5-difluorophenyl)azetidin-3-yl)-3-(6-((R)-2-methylpyrrolidin-1-yl)pyridin-3-yl)urea]
13 | ≤ 30 | 100 to 1000 | O=C1CCC(c2c(F)cc(N3CC(OC(=O)Nc4ccc(F)c(OC(F)F)c4)C3)cc2F)C(=O)N1 (stereo not drawn) [Compound 32, 1-(4-(2,6-dioxopiperidin-3-yl)-3,5-difluorophenyl)azetidin-3-yl (3-(difluoromethoxy)-4-fluorophenyl)carbamate]
14 | ≤ 30 | 100 to 1000 | O=C1CCC(c2c(F)cc(N3CC(OC(=O)Nc4cc(OC(F)(F)F)ccc4F)C3)cc2F)C(=O)N1 (stereo not drawn) [Compound 33, 1-(4-(2,6-dioxopiperidin-3-yl)-3,5-difluorophenyl)azetidin-3-yl (2-fluoro-5-(trifluoromethoxy)phenyl)carbamate]
15 | 30 to 300 | 100 to 1000 | O=C1CCC(c2c(F)cc(N3CC(OC(=O)Nc4cc(F)cc(Cl)c4)C3)cc2F)C(=O)N1 (stereo not drawn) [Compound 34, 1-(4-(2,6-dioxopiperidin-3-yl)-3,5-difluorophenyl)azetidin-3-yl(3-chloro-5-fluorophenyl)carbamate]
16 | > 300 | 100 to 1000 | Cc1cc(C)cc(NC(=O)NC2CN(c3ccc(C4CCC(=O)NC4=O)c(Cl)c3)C2)c1 (stereo not drawn) [Compound 35, 1-(1-(3-chloro-4-(2,6-dioxopiperidin-3-yl)phenyl)azetidin-3-yl)-3-(3,5-dimethylphenyl)urea]
17 | ≤ 30 | 100 to 1000 | O=C1CCC(c2c(F)cc(N3CC(OC(=O)Nc4cccc(OC5CC5)c4)C3)cc2F)C(=O)N1 (stereo not drawn) [Compound 37, 1-(4-(2,6-dioxopiperidin-3-yl)-3,5-difluorophenyl)azetidin-3-yl (3-cyclopropoxyphenyl)carbamate]
18 | ≤ 30 | 100 to 1000 | CC1(c2ccc(NC(=O)NC3CN(c4cc(F)c(C5CCC(=O)NC5=O)c(F)c4)C3)cn2)CC1 (stereo not drawn) [Compound 40, 1-(1-(4-(2,6-dioxopiperidin-3-yl)-3,5-difluorophenyl)azetidin-3-yl)-3-(6-(1-methylcyclopropyl)pyridin-3-yl)urea]
